According to article doi:10.1101/2020.06.07.139295v2 (biorxiv, 2020):
Where a chain is given by its changes, count along the chain named.

Legend:
TTLL6 (51-502) [1] = biological target: T1, TTLL6 (51-502) (Mus musculus, UniProt A4Q9E8); assay: [3H]-glutamate transfer to taxol-stabilized brain microtubules, filter assay; assay type: biochemical
T1 sequence (A4Q9E8 51-502): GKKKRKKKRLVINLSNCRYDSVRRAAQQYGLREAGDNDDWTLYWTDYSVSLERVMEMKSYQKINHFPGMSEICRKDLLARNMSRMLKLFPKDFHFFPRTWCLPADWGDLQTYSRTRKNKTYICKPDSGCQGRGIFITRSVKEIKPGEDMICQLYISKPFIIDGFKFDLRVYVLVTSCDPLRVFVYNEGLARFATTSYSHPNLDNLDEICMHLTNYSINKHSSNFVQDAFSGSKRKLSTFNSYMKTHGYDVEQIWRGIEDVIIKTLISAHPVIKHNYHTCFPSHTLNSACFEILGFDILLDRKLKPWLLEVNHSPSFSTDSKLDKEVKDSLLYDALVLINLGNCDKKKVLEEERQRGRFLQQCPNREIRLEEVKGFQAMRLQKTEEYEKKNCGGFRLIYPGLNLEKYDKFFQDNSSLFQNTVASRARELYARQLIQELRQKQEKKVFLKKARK

TTLL6 (51-502) [2] = biological target: T2, TTLL6 (51-502) (Mus musculus, UniProt A4Q9E8, C179A/H362I/Q180R); assay: as above; assay type: biochemical
T2 sequence (A4Q9E8 51-502 C179A/Q180R/H362I): T1 sequence (A4Q9E8 51-502) with C129A, Q130R, H312I

Row | Compound | IC50 (TTLL6 (51-502) [1]) | IC50 (TTLL6 (51-502) [2])
1 | CC(=O)NC(CCC(=O)O)P(=O)(O)CC(CCC(=O)O)C(=O)O (mixture of isomers) [α-elongation analog] | 0.6 ± 0.05 µM | 5.4 ± 0.8 µM
2 | CCNC(=O)[C@H](CCP(=O)(O)CC(CCC(=O)O)C(=O)O)NC(C)=O (mixture of isomers) [initiation analog] | 6.1 µM | 3.5 ± 0.2 µM
3 | CC(=O)N[C@@H](CCP(=O)(O)CC(CCC(=O)O)C(=O)O)C(=O)O (mixture of isomers) [γ-elongation analog] | ~6 µM | 2.5 ± 0.1 µM
